In patent publication US5910482A (priority 1996, dated 1999):

Experiments:
[1] = system: pregnant rats; assay: Effects of L-NAME infusion on systolic blood pressure in pregnant rats; type: in vivo, rat; conditions: n = 5
Method: The effects of hypertensive agent L-NAME (50 mg/rat) on blood pressure were studied. […] L-NAME was infused as described in the FIG. 2.

[2] = system: pregnant rats; assay: Delivery day and pup survival after L-NAME infusion to pregnant rats; effect of CGRP on fetal survival; type: in vivo; conditions: L-NAME 50/mg/day infusion to pregnant rats; 5 animals

COC(=O)[C@@H](N)CCCNC(=N)N[N+](=O)[O-] [L-NAME, N^G -nitro-L-arginine methyl ester]
Systolic Blood Pressure ([1]; Gestational Day 17 (before infusion start on day 18), L-NAME 50 mg/day): 116 ± 3 mm Hg
Systolic Blood Pressure ([1]; Gestational Day 18, L-NAME 50 mg/day infused from day 18): 137 ± 6 mm Hg
Systolic Blood Pressure ([1]; Gestational Day 19, L-NAME 50 mg/day infused from day 18): 154 ± 3 mm Hg
Systolic Blood Pressure ([1]; Gestational Day 22, L-NAME 50 mg/day infused from day 18): 137 ± 8 mm Hg
Systolic Blood Pressure ([1]; Postpartum PP Day 1, L-NAME 50 mg/day): 145 ± 5 mm Hg
Systolic Blood Pressure ([1]; Postpartum PP Day 2, L-NAME 50 mg/day): 140 ± 5 mm Hg
# of dead pups [2]: 10
Weight of pups [2]: 5.14 ± 0.07 g
